Assays:
Conditions in all cases: stated in words only
[1] = molecular target: p-glycoprotein (PGP) transporter (Homo sapiens, UniProt P08183); assay: affinity for p-glycoprotein transporter
hERG channel = hERG channel (Homo sapiens, UniProt Q12809); assay: activity in the hERG channel
first pass metabolism = assay: first pass metabolism
bioavailability = type: in vivo

Sequence of p-glycoprotein (PGP) transporter (P08183 whole entry): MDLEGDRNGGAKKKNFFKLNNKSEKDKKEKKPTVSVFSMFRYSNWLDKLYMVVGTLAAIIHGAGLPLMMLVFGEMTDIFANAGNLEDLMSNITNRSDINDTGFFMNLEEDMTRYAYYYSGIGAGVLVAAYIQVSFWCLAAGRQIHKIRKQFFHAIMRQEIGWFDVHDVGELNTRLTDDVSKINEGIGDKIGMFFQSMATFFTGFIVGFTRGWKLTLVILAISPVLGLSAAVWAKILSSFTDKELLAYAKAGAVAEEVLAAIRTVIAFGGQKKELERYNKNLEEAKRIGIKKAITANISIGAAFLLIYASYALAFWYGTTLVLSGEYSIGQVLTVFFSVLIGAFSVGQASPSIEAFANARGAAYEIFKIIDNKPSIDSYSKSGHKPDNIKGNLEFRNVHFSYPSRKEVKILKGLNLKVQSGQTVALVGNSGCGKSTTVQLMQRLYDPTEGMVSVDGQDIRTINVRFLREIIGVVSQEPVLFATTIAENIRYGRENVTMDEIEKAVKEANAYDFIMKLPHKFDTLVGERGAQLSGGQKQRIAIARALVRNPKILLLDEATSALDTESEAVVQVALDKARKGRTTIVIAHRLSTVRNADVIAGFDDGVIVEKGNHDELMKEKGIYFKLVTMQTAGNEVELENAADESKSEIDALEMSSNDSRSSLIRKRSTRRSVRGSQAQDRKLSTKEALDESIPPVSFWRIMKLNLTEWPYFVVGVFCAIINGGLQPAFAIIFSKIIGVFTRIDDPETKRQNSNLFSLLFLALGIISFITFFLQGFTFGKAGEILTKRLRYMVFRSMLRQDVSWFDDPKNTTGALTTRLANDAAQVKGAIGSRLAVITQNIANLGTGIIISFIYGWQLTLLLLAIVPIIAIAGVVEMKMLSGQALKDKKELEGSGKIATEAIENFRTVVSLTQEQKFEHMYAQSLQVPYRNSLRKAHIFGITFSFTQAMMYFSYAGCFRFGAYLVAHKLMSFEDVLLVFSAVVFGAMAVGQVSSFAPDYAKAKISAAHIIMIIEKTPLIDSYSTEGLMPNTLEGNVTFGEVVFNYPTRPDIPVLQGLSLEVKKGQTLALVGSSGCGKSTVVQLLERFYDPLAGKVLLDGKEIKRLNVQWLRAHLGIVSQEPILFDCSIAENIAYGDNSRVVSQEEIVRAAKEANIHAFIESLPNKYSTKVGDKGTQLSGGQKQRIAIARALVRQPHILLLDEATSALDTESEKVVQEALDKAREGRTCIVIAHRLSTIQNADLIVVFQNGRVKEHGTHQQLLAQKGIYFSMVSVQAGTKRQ
Sequence of hERG channel (Q12809 whole entry): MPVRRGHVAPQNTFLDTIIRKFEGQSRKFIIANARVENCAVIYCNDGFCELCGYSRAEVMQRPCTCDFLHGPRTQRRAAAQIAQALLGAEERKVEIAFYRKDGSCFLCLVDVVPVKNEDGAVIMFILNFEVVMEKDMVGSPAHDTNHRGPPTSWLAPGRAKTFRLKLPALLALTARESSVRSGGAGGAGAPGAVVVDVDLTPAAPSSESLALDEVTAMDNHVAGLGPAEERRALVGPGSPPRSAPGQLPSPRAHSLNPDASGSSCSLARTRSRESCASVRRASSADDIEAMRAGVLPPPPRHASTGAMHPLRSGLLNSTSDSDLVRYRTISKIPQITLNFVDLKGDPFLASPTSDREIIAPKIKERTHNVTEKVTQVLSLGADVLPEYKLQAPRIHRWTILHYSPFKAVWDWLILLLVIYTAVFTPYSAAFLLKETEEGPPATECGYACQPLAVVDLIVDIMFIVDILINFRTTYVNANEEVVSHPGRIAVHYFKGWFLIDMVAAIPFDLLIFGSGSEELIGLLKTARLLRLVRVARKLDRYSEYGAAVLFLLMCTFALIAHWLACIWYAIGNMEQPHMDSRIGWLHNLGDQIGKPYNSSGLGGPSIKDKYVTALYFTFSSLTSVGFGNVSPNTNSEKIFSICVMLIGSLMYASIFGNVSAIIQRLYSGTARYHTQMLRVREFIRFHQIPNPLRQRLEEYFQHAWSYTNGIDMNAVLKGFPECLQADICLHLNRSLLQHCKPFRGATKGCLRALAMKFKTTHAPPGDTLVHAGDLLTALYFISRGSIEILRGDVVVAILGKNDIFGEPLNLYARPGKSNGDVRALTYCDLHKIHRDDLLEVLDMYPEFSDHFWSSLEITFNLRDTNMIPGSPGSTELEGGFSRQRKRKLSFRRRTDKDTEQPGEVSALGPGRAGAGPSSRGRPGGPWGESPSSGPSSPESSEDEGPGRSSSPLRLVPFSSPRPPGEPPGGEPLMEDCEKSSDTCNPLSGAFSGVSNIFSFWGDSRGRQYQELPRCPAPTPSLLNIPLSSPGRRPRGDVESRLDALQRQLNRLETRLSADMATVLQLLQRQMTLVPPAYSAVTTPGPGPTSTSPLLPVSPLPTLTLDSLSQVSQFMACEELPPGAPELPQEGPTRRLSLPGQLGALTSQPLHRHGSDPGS

affinity for p-glycoprotein (PGP) transporter (which affects cell permeability) [1]: low affinity
first pass metabolism (first pass metabolism): relatively low
bioavailability (bioavailability): relatively good
SMILES: CC(C)(F)Cn1ncc2cc(Oc3ccc(F)cc3F)c(C(=O)N[C@H]3CCNC3=O)cc21 [Example 27, (S)-5-(2,4-difluorophenoxy)-1-(2-fluoro-2-methylpropyl)-N-(2-oxopyrrolidin-3-yl)-1H-indazole-6-carboxamide]
activity in the hERG channel (a predictor for cardiac side effects) (hERG channel): low activity

— patent publication US8026233B2, “P38 inhibitors and methods of use thereof” (Array BioPharma Inc., priority 2006, dated 2011)
